Reference: patent US10669269B2, “Substituted N-(1H-indazol-4-yl)imidazo[1,2-a]pyridine-3-carboxamide compounds as type III receptor tyrosine kinase inhibitors” (ARRAY BIOPHARMA INC., priority 2010, dated 2020)

How the values were obtained:
PDGFR beta [1] = target: T1, PDGFR beta (Homo sapiens, UniProt P09619); test: Phospho PDGFR LICOR Cell Assay (Example B); assay type: cell-based; settings: averaged IC50; PDGFR beta phosphorylation in HS27 human fibroblast cell line, PDGF-BB stimulation 10 minutes, normalized to total ERK
T1 construct: endogenous in cells; host or cells: HS27 human fibroblast cell line
Method in brief: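 HS27 human fibroblasts pretreated 1 h with compound, then stimulated 10 min with PDGF-BB. Fixed, permeabilized cells immunostained for phospho-PDGFRβ and total ERK and read by two-colour infrared fluorescence, with phospho signal normalized to ERK. IC50 = 50% of control from 4-parameter logistic fit.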

PDGFR beta [2] = target: T1, PDGFR beta; test: Phospho PDGFR Cell Assay, sandwich ELISA (Example A); assay type: cell-based; settings: averaged IC50, PDGFR beta phosphorylation in HS27 human fibroblast cell line, PDGF-BB stimulation 5 minutes
Method in brief: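 HS27 human fibroblasts were pretreated with compound for 1 h, stimulated with PDGF-BB for 5 min, then lysed. Phospho-PDGFR beta was measured by sandwich ELISA, and IC50 was taken as the concentration giving 50 percent of control from a 4-parameter logistic fit.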

cFMS = target: T2, cFMS (Homo sapiens, UniProt P07333); test: cFMS Cell-Based Assay (Example C); settings: averaged IC50; phospho-cFMS in THP-1 cells stimulated with 250 ng/mL recombinant human MCSF; read-out: cFMS Cell ELISA IC50
T2 construct: THP-1 cells (human acute monocytic leukemia cell line) were serum-starved for 4 hours; endogenous in cells; host or cells: THP-1 cells (human acute monocytic leukemia cell line)
Method in brief: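 THP-1 cells serum-starved 4 h, then treated 1 h with compound (9-point, 3-fold series, top dose typically 5,000 nM) at 37 °C, then stimulated 1 min with 250 ng/mL recombinant human MCSF. Phospho-cFMS in lysates quantified by capture ELISA against a purified phospho-protein standard curve. IC50 at 50 percent of control, 4-parameter logistic fit.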

c-KIT = target: T3, c-KIT (Homo sapiens, UniProt P10721); test: c-KIT Cell-Based Assay (Example D); settings: averaged IC50; phospho-c-KIT in M-07e cells stimulated with 150 ng/ml recombinant human SCF; read-out: cKIT Cell ELISA IC50
T3 construct: M-07e cells (human acute megakaryoblastic leukemia cell line) were serum-starved for 4 hours; endogenous in cells; host or cells: M-07e cells (human acute megakaryoblastic leukemia cell line)
Method in brief: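 M-07e cells serum-starved 4 h, treated 1 h with compound (9-point, 3-fold dilutions, top dose typically 5,000 nM) at 37° C, then stimulated 4 min with 150 ng/ml SCF. Phospho-c-KIT in lysates quantified by ELISA against a standard curve; IC50 from 4-parameter logistic fit as 50% of control.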

T3 sequence (P10721 26-976): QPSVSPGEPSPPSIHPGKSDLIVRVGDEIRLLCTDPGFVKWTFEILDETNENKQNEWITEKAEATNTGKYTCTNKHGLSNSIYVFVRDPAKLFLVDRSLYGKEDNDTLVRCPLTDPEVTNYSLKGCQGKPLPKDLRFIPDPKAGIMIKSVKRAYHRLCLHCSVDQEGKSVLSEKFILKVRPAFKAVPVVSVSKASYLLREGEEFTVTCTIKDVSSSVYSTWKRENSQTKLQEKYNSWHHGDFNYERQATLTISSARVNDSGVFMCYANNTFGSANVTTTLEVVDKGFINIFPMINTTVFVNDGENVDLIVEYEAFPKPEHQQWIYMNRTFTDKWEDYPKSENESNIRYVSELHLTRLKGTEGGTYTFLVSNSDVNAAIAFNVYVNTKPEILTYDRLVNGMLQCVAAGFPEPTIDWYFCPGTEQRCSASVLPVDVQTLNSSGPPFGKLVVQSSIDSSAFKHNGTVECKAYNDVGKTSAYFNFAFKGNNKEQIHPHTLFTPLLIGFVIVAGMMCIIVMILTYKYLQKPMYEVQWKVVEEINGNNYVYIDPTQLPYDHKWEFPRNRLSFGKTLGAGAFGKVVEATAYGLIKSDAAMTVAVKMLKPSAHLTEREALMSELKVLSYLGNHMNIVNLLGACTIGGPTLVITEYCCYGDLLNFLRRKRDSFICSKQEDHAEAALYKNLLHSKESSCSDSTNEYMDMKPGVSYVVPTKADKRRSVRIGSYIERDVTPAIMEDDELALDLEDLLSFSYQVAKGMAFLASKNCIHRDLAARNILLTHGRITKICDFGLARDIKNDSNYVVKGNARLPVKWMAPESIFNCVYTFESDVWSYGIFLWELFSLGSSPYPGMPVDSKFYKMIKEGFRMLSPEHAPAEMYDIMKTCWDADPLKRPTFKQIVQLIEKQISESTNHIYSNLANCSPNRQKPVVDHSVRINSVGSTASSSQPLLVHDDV
T2 sequence (P07333 20-972): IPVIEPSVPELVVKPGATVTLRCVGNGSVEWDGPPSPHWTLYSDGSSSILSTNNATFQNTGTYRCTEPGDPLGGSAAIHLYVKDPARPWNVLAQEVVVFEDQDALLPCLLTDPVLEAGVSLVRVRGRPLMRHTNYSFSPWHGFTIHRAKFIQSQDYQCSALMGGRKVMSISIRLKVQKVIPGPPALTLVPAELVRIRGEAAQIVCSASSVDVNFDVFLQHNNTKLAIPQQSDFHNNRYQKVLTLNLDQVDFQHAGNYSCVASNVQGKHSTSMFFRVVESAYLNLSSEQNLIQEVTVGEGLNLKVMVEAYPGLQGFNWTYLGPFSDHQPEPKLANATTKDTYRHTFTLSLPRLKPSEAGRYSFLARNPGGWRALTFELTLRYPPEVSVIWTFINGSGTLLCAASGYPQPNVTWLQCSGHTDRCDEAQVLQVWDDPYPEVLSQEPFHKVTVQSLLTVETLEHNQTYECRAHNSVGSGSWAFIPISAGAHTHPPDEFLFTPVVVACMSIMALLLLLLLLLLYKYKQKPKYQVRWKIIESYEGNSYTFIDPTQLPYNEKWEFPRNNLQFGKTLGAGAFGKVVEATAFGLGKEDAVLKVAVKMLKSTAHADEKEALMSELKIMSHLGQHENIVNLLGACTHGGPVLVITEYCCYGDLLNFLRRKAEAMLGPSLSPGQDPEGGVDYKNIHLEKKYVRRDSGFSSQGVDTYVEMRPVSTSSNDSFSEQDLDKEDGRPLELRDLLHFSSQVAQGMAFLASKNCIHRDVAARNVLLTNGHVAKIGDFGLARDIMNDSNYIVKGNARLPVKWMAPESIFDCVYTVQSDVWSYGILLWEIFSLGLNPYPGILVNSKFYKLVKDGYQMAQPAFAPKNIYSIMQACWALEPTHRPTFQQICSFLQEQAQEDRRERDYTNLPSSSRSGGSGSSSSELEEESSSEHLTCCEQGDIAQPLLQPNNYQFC
T1 sequence (P09619 33-1106): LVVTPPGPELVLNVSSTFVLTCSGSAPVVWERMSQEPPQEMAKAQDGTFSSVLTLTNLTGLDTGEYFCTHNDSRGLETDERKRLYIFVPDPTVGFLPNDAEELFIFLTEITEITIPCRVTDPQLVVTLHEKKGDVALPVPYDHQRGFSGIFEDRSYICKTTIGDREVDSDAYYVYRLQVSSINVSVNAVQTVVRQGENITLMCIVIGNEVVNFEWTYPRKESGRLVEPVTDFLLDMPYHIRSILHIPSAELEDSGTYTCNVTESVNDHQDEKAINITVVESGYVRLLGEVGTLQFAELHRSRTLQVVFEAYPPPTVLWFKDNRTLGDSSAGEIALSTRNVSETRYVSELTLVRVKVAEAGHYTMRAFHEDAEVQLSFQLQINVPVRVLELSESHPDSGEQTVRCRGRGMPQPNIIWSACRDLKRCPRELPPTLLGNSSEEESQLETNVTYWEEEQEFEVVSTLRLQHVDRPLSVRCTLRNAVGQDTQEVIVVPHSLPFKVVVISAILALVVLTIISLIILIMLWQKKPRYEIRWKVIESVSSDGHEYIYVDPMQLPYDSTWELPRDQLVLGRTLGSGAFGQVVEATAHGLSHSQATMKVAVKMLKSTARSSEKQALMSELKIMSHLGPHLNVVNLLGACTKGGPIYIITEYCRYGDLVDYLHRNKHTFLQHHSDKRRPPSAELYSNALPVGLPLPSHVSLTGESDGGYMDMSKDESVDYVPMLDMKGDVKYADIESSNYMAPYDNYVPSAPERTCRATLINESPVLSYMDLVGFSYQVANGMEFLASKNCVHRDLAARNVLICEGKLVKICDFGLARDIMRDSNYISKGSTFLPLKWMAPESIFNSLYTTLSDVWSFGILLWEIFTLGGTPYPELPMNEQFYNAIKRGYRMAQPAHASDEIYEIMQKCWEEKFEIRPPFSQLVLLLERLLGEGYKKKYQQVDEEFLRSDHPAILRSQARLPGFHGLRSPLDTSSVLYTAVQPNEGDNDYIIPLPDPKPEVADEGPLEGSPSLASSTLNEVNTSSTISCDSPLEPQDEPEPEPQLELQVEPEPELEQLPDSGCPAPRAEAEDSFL

IC50 (PDGFR beta [1]) [nM] | IC50 (PDGFR beta [2]) [nM] | IC50 (cFMS) [nM] | IC50 (c-KIT) [nM] | Compound
6.5 | 74.9 | 15.9 | 48.5 | Cc1nn(Cc2cccc(C3CC3)n2)c2cccc(NC(=O)c3cnc4cc(OCCN5CCN(C)CC5)ccn34)c12 [Example 47, N-(1-((6-cyclopropylpyridin-2-yl)methyl)-3-methyl-1H-indazol-4-yl)-7-(2-(4-methylpiperazin-1-yl)ethoxy)imidazo[1,2-a]pyridine-3-carboxamide]
4.8 | 18.3 | 10.2 | 30.7 | Cc1nn(Cc2cccc(C(C)C)n2)c2cccc(NC(=O)c3cnc4cc(OCCN5CCN(C)CC5)ccn34)c12 [Example 66, N-(1-((6-isopropylpyridin-2-yl)methyl)-3-methyl-1H-indazol-4-yl)-7-(2-(4-methylpiperazin-1-yl)ethoxy)imidazo[1,2-a]pyridine-3-carboxamide]
10.9 | 22.2 | 4.4 | 30.1 | O=C(Nc1cccc2c1cnn2Cc1ccccc1)c1cnc2cc(OCC(O)CO)ccn12 (stereo not drawn) [Example 91, N-(1-benzyl-1H-indazol-4-yl)-7-(2,3-dihydroxypropoxy)imidazo[1,2-a]pyridine-3-carboxamide]
